Measured values from patent publication US20080242542A1, “INDANILINE DYE, THERMAL TRANSFER RECORDING INK SHEET, THERMAL TRANSFER RECORDING METHOD, COLOR TONER, INKJET INK, AND COLOR FILTER” (FUJIFILM Corporation, priority 2007, published 2008).

Assay: Absorption spectrometry in ethyl acetate solution
Assay type: physicochemical
Conditions: 1×10^−6 mol/L, optical path length 10 mm
Method: The thus-obtained compounds (1) to (4) were analyzed for absorption spectrometry in an ethyl acetate solution (concentration: 1×10^−6 mol/L, optical path length; 10 mm). The data of ^1H NMR spectrometry (in heavy chloroform) and MS spectrometry of the obtained compounds (1) to (4) are shown in Table 1 below.

SMILES	Maximum Absorption Wavelength
CCC(=O)NC1=CC(=Nc2ccc(N(CC)CC)cc2)C(C)=C(Cl)C1=O [Compound (1)]	626 nm

Assay: Light fastness of recorded image under Xe light
Assay type: physicochemical
Conditions: Xe light (17000 lux) for 7 days; retention of reflection density 1.0
Method: Next, the recorded samples were exposed to an Xe light (17000 lux) for 7 days, and rested for the light stability (light fastness) of the recorded images. After the exposure, the status A reflection density of the part of each sample having an original status A reflection density of 1.0 before the exposure was measured, and the retention (by percentage) to the reflection density of 1.0 after exposure to that before exposure indicates the image stability. With the retention percentage, the samples were ranked in three, A (from 80% to less than 100%), B (from 60% to less than 80%) , C (less than 60%).

SMILES	Light Fastness
CCC(=O)NC1=CC(=Nc2ccc(N(CC)CC)cc2)C(C)=C(Cl)C1=O [Compound (1)]	A (A (from 80% to less than 100%))
CCN(CC)c1ccc(N=C2C=C(NC(C)=O)C(=O)C(Cl)=C2C)cc1 [Comparative Dye 1]	A (A (from 80% to less than 100%))
CCN(CC)c1ccc(N=C2C=C(NC(C)=O)C(=O)C=C2C)c(C)c1 [Comparative Dye 3]	B (B (from 60% to less than 80%))

Second part, the molecule after the results:

Light Fastness	SMILES
A (A (from 80% to less than 100%))	CCN(CC)c1ccc(N=C2C=C(NC(=O)c3ccccc3)C(=O)C(Cl)=C2C)c(C)c1 [Comparative Dye 5]
A (A (from 80% to less than 100%))	CCN(CC)c1ccc(N=C2C=C(NC(C)=O)C(=O)C(Cl)=C2C)c(C)c1 [Comparative Dye 4]
